In patent US7754911B2, “Method for isolating methyl glycine nitrile-N,N-diacetonitriles from an aqueous crude mixture” (BASF Aktiengesellschaft, priority 2005, dated 2010):

Experiment: solubility of MGDN in water (temperature-dependent)
Assay type: physicochemical
Protocol: MGDN has highly temperature-dependent solubility in water. For instance, only about 0.5% by weight of MGDN dissolves at 10° C. in water or an aqueous ammonium sulfate solution. At approx. 60° C., the solubility is still about 5% by weight. Above approx. 60° C., an emulsion of MGDN and its aqueous solution with more than 5% by weight of dissolved MGDN is present. No phase diagram of the water-MGDN system is known.
The MGDN concentration of the aqueous crude product mixture is generally from 3 to 50% by weight, preferably from 15 to 40% by weight, more preferably from 20 to 35% by weight. A content of dissolved MGDN of 1% by weight corresponds to a crystallization temperature of approx. 20° C., a content of dissolved MCDN of 5% by weight to a crystallization temperature of approx. 55° C. At 10° C., the water solubility of MGDN is still about 0.5% by weight.

water solubility (at 10° C.): about 0.5 % by weight | solubility (at 10° C. in water or an aqueous ammonium sulfate solution): about 0.5 % by weight | solubility (at approx. 60° C., in water): about 5 % by weight | content of dissolved MGDN (corresponds to a crystallization temperature of approx. 20° C.): 1 % by weight | content of dissolved MGDN (corresponds to a crystallization temperature of approx. 55° C.): 5 % by weight
Structure (SMILES): CC(C#N)N(CC#N)CC#N (centres unmarked) [MGDN, methylglycinenitrile-N,N-diacetonitrile]
